# Entries after “also recorded” stand apart in the source; their conditions may differ. Square brackets hold non-standard residues; d marks the D form. Peptide text beside a SMILES is read from it. Lys(N3) = [N-]=[N+]=NCCCC[C@H](N)C(=O)O
# Tests used:
# [1] = biological target: T1, Aβ42 (Homo sapiens, UniProt P05067); experiment: Grating-Coupled Interferometry (GCI) binding to immobilized Aβ42; details: GCI fit quality parameter
# Description: The Grating‐Coupled Interferometry (GCI) is a widely used analytical technique for characterizing intermolecular interactions. It allows quantitative measurements of both the affinity and the kinetics of the binding events. This high sensitivity label‐free method was exploited to measure the interactions of Aβ42 with Cu‐Ph‐Pep , Ph‐Pep , and Zn‐Ph‐Pep (Figure 5S). Control experiments with pristine MCPTPyP and the peptide GPGKLVFF ( Pep ) were carried out for comparison. The calculated association and dissociation kinetic constants (kon and koff, respectively) and the thermodynamic binding constant (KD), are summarized in Table 1. The obtained values indicate that all the conjugates show good affinities with Aβ42. It is also clear from Table 1 that the peptide moiety is fundamental for the molecular recognition of the Aβ42 peptide.[48] […] Nevertheless, it is important to emphasize that the interaction with Aβ42 is primarily mediated by the peptide rather than by the porphyrin macrocycle. We next investigated whether these peptide derivatives could be employed as molecular probes for the detection of Aβ42 aggregated species. A new set of CD experiments was then carried out with Aβ42 at 20 μM both in the absence and in the presence of the porphyrin‐peptide conjugates at 1 : 1 molar ratio in the UV (195–350) and Visible (350–500) regions. […] The signal rapidly evolved toward the typical β‐sheet profile (already within 24 h) with a single minimum at 216 nm, an x‐axis intercept at 202 nm and a maximum shift at a wavelength 195 nm.[49] […] For the sake of comparison, the CD spectra of the porphyrin‐peptide conjugates at 20 μM were also recorded in the same experimental conditions, both in the far‐UV and Visible regions (Figure 6S).
# The experiments were performed on a Creoptix WAVE system (Creoptix). Borate buffer (100 mM sodium borate pH 9.0, 1 M NaCl) was used for chip conditioning. Aβ42 peptide (20 μg/ml in Na Acetate pH 4.5) was immobilized on 4PCH WAVE chips (quasiplanar polycarboxylate surface; Creoptix) according to the manufacturer instructions at a final density of 1910±40 pg/mm^2. Single‐cycle sequential injections of dilution series for each Porphyrin‐Peptide conjugates in running buffer (PBS, 0.005 % Tween 20, 1 % DMSO, 0.2 mg/ml BSA) were performed at 25 °C, using a flow rate of 100 μl/min. In details, for the conjugate Cu‐Ph‐Pep , 1 : 2 dilution series starting from 200 μM were injected for 10 s association time, 45 s dissociation time, followed by a dissociation time of 600 s for the last higher concentration injection. Finally, for the conjugates Ph‐Pep and Zn‐Ph‐Pep , 1 : 2 dilution series starting from 50 μM and 100 uM, respectively, were injected for 30 s association time, 45 s dissociation time, followed by a dissociation time of 600 s for the last higher concentration injection. Blank injections were used for double referencing and a DMSO calibration curve for bulk correction. Analysis and correction of the obtained data were performed using the Creoptix WAVE control software (correction applied: X and Y offset; DMSO calibration; double referencing). Mass transport binding models with bulk correction were used to fit all experiments. All the experiments have been performed at least in triplicate.
# Figure 5S. Quantitative binding kinetics of Aβ42 vs a) MCPTPyP; b) Cu-Ph-Pep; c) Ph-Pep; d) Zn-Ph-Pep; and e) Pep measured by GCI. All curves were blank subtracted. Experiments were performed in triplicate. All the quality assessments (i.e., χ2 shown in Table 1 of the main text , parameter errors, and residual plots were acceptable; the sensorgrams had sufficient curvatures an d the kinetic constant k off were within the measurable range) were fulfilled. Descriptive Statistical Analysis was employed to calculate the mean of the obtained values of k on, koff and KD as a measure of central tendency and standard deviations of the former values were computed as a measure of dispersion.
# Figure 6S. […]
# [2] = UV-Vis self-aggregation of the conjugates; type: physicochemical; details: UV-Vis 300–650 nm, 5 μM, 10 mM phosphate buffer pH 7.4, room temperature, 0–120 h
# Description: We first studied the effects of peptide conjugation on the porphyrin chromophore, by UV‐Vis spectra in the region between 300–650 nm. The spectra were recorded using a solution of 5 μM Porphyrin‐peptide conjugate in 10 mM phosphate buffer pH 7.4. The UV‐Vis profile of the porphyrin precursor MCPTPyP, recorded at the same concentration, is also shown for the sake of comparison (Figure 1).
# (§1) Peptide conjugation influences the spectral features of the porphyrin chromophore as evidenced by the red shift in the absorption maximum in the region of the Soret band region. The Q bands are also affected, particularly in the Cu‐Ph‐Pep and Zn‐Ph‐Pep compounds (Figure 1). In this case the presence of a metal ion within the porphyrin's core might contribute to the observed spectral profile of these compounds. […] The fluorescence spectra of the investigated systems were also acquired in view of the interaction of the studied conjugates with cells (see below biological section).[41] The fluorescence spectra were recorded with the photoexcitation at 425±5 nm, in 10 mM phosphate buffer pH 7.4 and 5 μM concentration. The emission spectrum of the porphyrin precursor MCPTPyP ( Ph ) was also obtained for the sake of comparison.
# (§2) Spectra were recorded on a Jasco V‐670 Spectrophotometer at room temperature. All measurements were performed in the 300–650 nm wavelength region, in a 10 mM phosphate buffer solution at pH 7.4 using a 1 cm path length quartz cell. The spectra of all the peptide‐porphyrin conjugates, either in the absence or in the presence of equimolar Aβ42, were acquired at 5 μM. In some cases, the same sample solution was used to run the CD spectra. The final concentrations of Aβ42 and peptide conjugates were 5 μM (1 : 1 molar ratio).
# [3] = CD control: β-sheet propensity of the conjugates alone; type: physicochemical; details: 10 mM phosphate buffer pH 7.4, room temperature, up to 120 h
# Description: (§3) The UV‐Vis spectra of porphyrin‐peptide conjugates (5 μM) were recorded in the presence of an equimolar ration of Aβ42 monomers at 0, 24, 48 and 120 h (Figure 2S). […] Therefore, the interaction of the peptide‐porphyrin conjugates with Aβ was further studied using CD spectroscopy. The Aβ42 aggregation process was monitored either in the absence or in the presence of an equimolar amount of the conjugated peptides. A series of CD control experiments were preventively carried out to assess the propensity of the porphyrin‐peptide conjugates to adopt a β‐sheet conformation. The corresponding CD curves are shown in the supplementary material (Figure 3S). […] We then evaluated the ability of the porphyrin‐peptide conjugates to affect the Aβ42’s aggregation process. This was accomplished by running a series of CD experiments on the binary systems in the same experimental conditions as the control CD measurements. A 5 μM Aβ42 sample was used as a positive control of the aggregation process (Figure 3, panel a). In this case, the curve profiles indicate that at 0 h, Aβ42 is predominantly in the random coil conformation, as evidenced by the negative ellipticity around 200 nm. […] The typical dichroic profile characterized by a negative ellipticity at λ=222 nm and a positive band at λ=200 is indicative of this event (Figure 3, panel a).
# Spectra were recorded on a J‐810 spectrometer (Jasco, Japan) under a constant flow of N2 at room temperature. The CD measurements were performed in the wavelength regions (190–260 nm, 195–350 nm and 350–500 nm) using a 1 cm path length quartz cell. All aggregation kinetics were monitored up to 120 hours. The CD spectra were recorded for Aβ42 (5 μM and 20 μM) monomer in the absence or in the presence of porphyrin‐peptide conjugates (5 μM and 20 μM for the 1 : 1 molar ratios). Monomerized samples of Aβ42 (5 μM and 20 μM) were solubilized in 50 μL of NaOH 20 mM (2,5 %) and after were diluted with 1950 μL of 10 mM phosphate buffer at pH 7.4 pure or containing the solubilized conjugates.
# [4] = biological target: T1, Aβ42; experiment: UV-Vis of conjugates with equimolar Aβ42; type: biochemical; details: 5 μM conjugate, equimolar Aβ42, 10 mM phosphate buffer pH 7.4, 0, 24, 48 and 120 h
# Description: as §3, §2
# [5] = Porphyrin fluorescence in buffer; type: physicochemical; details: 5 μM, 10 mM phosphate buffer pH 7.4, excitation 425 nm; vs pristine MCPTPyP
# Excerpt: as §1
# Spectra were recorded on a Horiba Fluoro‐max‐4 spectrofluorometer from 440–800 nm in 1 nm steps, at an excitation wavelength λexc=425 nm, at room temperature. The final fluorescence spectra represent averages of at least three measurements. Bandwidths of 5 nm for both excitation and emission were used. The sample of the compound used to record absorption spectra were the same as those for the CD spectra.
# [6] = system: full-length Aβ; details: ref [44], [45]; cited from earlier work
# Excerpt: In the present work we employed UV‐Vis, CD spectroscopy and Bis‐Ans fluorescence to explore the molecular processes underlying the interactions occurring between Aβ and the porphyrin‐peptide conjugates.
# T1 sequence (P05067 672-713 limits assumed): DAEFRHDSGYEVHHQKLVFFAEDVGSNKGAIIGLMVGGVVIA
Molecule,"χ^2 (average of the squared residuals, fitting confidence) [1]",self-aggregation [2],propensity to adopt β-sheet conformation (conjugate alone) [3],UV-Vis spectral change in presence of Aβ42 [4],fluorescence emission intensity [5],recognition of full-length Aβ [6]
COC(=O)[C@H](Cc1cn(CCCC[C@H](NC(=O)CNC(C)=O)C(=O)N2CCC[C@H]2C(=O)NCC(=O)N[C@@H](CCCCN)C(=O)N[C@@H](CC(C)C)C(=O)N[C@H](C(=O)N[C@@H](Cc2ccccc2)C(=O)N[C@@H](Cc2ccccc2)C(N)=O)C(C)C)nn1)NC(=O)c1ccc(-c2c3nc(c(-c4cc[n+](C)cc4)c4ccc([nH]4)c(-c4cc[n+](C)cc4)c4nc(c(-c5cc[n+](C)cc5)c5ccc2[nH]5)C=C4)C=C3)cc1 [Ph‐Pep],0.71±0.04,absence of significant self‐aggregation phenomena,can fairly adopt β‐sheet conformation over time,minor variations in the spectral profiles,somewhat decreased,
CC(=O)NCC(=O)N[C@@H](CCCCN=[N+]=[N-])C(=O)N1CCC[C@H]1C(=O)NCC(=O)N[C@@H](CCCCN)C(=O)N[C@@H](CC(C)C)C(=O)N[C@H](C(=O)N[C@@H](Cc1ccccc1)C(=O)N[C@@H](Cc1ccccc1)C(N)=O)C(C)C [Pep] (Ac-G[Lys(N3)]PGKLVFF-NH2),0.79±0.08,,,,,
COC(=O)[C@H](Cc1cn(CCCC[C@H](NC(=O)CNC(C)=O)C(=O)N2CCC[C@H]2C(=O)NCC(=O)N[C@@H](CCCCN)C(=O)N[C@@H](CC(C)C)C(=O)N[C@H](C(=O)N[C@@H](Cc2ccccc2)C(=O)N[C@@H](Cc2ccccc2)C(N)=O)C(C)C)nn1)NC(=O)c1ccc(-c2c3nc(c(-c4cc[n+](C)cc4)c4ccc([nH]4)c(-c4cc[n+](C)cc4)c4nc(c(-c5cc[n+](C)cc5)c5ccc2[nH]5)C=C4)C=C3)cc1 [Cu‐Ph‐Pep],0.76±0.07,absence of significant self‐aggregation phenomena,can fairly adopt β‐sheet conformation over time,minor variations in the spectral profiles; also recorded: observable absorbance diminution,not fluorescent,
KLVFF [well-known hydrophobic core Aβ16–20 (KLVFF)],,,,,,can recognize and co‐assemble with full‐length Aβ

# From publication PMC11610669, “A Spectroscopic Study on the Amyloid‐β Interaction with Clicked Peptide‐Porphyrin Conjugates: a Vision Toward the Detection of Aβ Peptides in Aqueous Solution” (Chembiochem, 2024)
